According to US10828350B1, “Topical and orally administered protease inhibitors and bacterial vectors for the treatment of disorders and methods of treatment” (priority 2014, dated 2020):

B1: α-2-macroglobulin (protein, UniProt P01023 24-1474, looked up)
Alpha-2-macroglobulin: SVSGKPQYMVLVPSLLHTETTEKGCVLLSYLNETVTVSASLESVRGNRSLFTDLEAENDVLHCVAFAVPKSSSNEEVMFLTVQVKGPTQEFKKRTTVMVKNEDSLVFVQTDKSIYKPGQTVKFRVVSMDENFHPLNELIPLVYIQDPKGNRIAQWQSFQLEGGLKQFSFPLSSEPFQGSYKVVVQKKSGGRTEHPFTVEEFVLPKFEVQVTVPKIITILEEEMNVSVCGLYTYGKPVPGHVTVSICRKYSDASDCHGEDSQAFCEKFSGQLNSHGCFYQQVKTKVFQLKRKEYEMKLHTEAQIQEEGTVVELTGRQSSEITRTITKLSFVKVDSHFRQGIPFFGQVRLVDGKGVPIPNKVIFIRGNEANYYSNATTDEHGLVQFSINTTNVMGTSLTVRVNYKDRSPCYGYQWVSEEHEEAHHTAYLVFSPSKSFVHLEPMSHELPCGHTQTVQAHYILNGGTLLGLKKLSFYYLIMAKGGIVRTGTHGLLVKQEDMKGHFSISIPVKSDIAPVARLLIYAVLPTGDVIGDSAKYDVENCLANKVDLSFSPSQSLPASHAHLRVTAAPQSVCALRAVDQSVLLMKPDAELSASSVYNLLPEKDLTGFPGPLNDQDNEDCINRHNVYINGITYTPVSSTNEKDMYSFLEDMGLKAFTNSKIRKPKMCPQLQQYEMHGPEGLRVGFYESDVMGRGHARLVHVEEPHTETVRKYFPETWIWDLVVVNSAGVAEVGVTVPDTITEWKAGAFCLSEDAGLGISSTASLRAFQPFFVELTMPYSVIRGEAFTLKATVLNYLPKCIRVSVQLEASPAFLAVPVEKEQAPHCICANGRQTVSWAVTPKSLGNVNFTVSAEALESQELCGTEVPSVPEHGRKDTVIKPLLVEPEGLEKETTFNSLLCPSGGEVSEELSLKLPPNVVEESARASVSVLGDILGSAMQNTQNLLQMPYGCGEQNMVLFAPNIYVLDYLNETQQLTPEIKSKAIGYLNTGYQRQLNYKHYDGSYSTFGERYGRNQGNTWLTAFVLKTFAQARAYIFIDEAHITQALIWLSQRQKDNGCFRSSGSLLNNAIKGGVEDEVTLSAYITIALLEIPLTVTHPVVRNALFCLESAWKTAQEGDHGSHVYTKALLAYAFALAGNQDKRKEVLKSLNEEAVKKDNSVHWERPQKPKAPVGHFYEPQAPSAEVEMTSYVLLAYLTAQPAPTSEDLTSATNIVKWITKQQNAQGGFSSTQDTVVALHALSKYGAATFTRTGKAAQVTIQSSGTFSSKFQVDNNNRLLLQQVSLPELPGEYSMKVTGEGCVYLQTSLKYNILPEKEEFPFALGVQTLPQTCDEPKAHTSFQISLSVSYTGSRSASNMAIVDVKMVSGFIPLKPTVKMLERSNHVSRTEVSSNHVLIYLDKVSNQTLSLFFTVLQDVPVRDLKPAIVKVYDYYETDEFAIAEYNAPCSKDLGNA

Test system: trypsin
Assay: Petri plate assay detecting zones of protease protection by protease inhibitors or bacterial strains after flooding with trypsin
Assay type: biochemical
Conditions: for relative size of zone of inhibition (diffusion zone): casein plates, to a lesser degree gelatin plates, compared among leupeptin, aprotinin and α-2-macroglobulin
Text: Because the protocol is destructive to the plate assayed, a duplicate or replica plate is generated and retained for identification and further analysis of the strains using methods known to those skilled in the arts. The initial step is the exposure of the protease detection plate to a protease inhibitor or bacterial growth. Either commercially available protease inhibitor peptides or growth of bacterial strains on the protease detection plates can be detected. […] The bacterial strains Photorabdus (Xenorhabdus) luminescens strain Hm primary and secondary forms where the secondary and not the primary form is known to secrete a protease inhibitor and the other strains are negative controls (Wee et al. 2000, A new broad-spectrum protease inhibitor from the entomopathogenic bacterium Photorhabdus luminescens. Microbiology 146: 3141-3147), Citrobacter freundii (ATCC #33128), Staphylococcus aureus, S. epidermidis and Enterococcusfaecalis are allowed to grow two days at 30° C. in air.
The base media can be any microbiological media designed to facilitate the growth of cultivable microorganism; different media can be used to favor different strains as appropriate (Kreig, 1981, Chapter 8, Enrichment and Isolation, p. 112-142 in Manual of Methods for General Bacteriology, Gerhardt et al., eds, American Society for Microbiology, Washington, D.C.). Variations on the type of protease being targeted, the protease substrate and cognate inhibitors are shown in Table 1 and used as a guide in the modification of media. A casein base media based on that of Vijayaraghavan and Vincent (2013, A simple method for the detection of protease activity on agar plates using bromochresol green dye, J. Biochem. Tech. 4: 628-630), which contained 5 grams of peptone, 1.5 grams of yeast extract, 1.5 grams of sodium chloride per liter with, except that the casein 0.5% is used (instead of 1.0%) and dissolved as described by Montville (1983, Dual-substrate plate diffusion assay for proteases, Appl Environ Microbiol 45: 200-204) using 0.02 N NaOH. When bromochresol green (BCG) is added directly to the media, 0.0015% is used. BCG preincorporated into the media as well as post incubation addition of a BCG dye reagent containing 0.028% BCG dissolved in 0.56% (w/v) succinic acid, 0.1% (w/v) NaOH (Vijayaraghavan and Vincent; 2013) with 0.6% Brij-35 and then acidified to pH 4.2 can also be used following exposure to a protease inhibitor or bacterial growth and subsequent exposure to a protease. After staining and then destaining in water the by completely removing the agar from the lower plastic, the plates are observed for the presence and absence of protein. Ponseau S staining by flooding the plate with 5 ml of the stain containing 0.1% Ponseau S (PS; Sigma, St. Louis, Mo.) and 5% acetic acid in water for 1-2 hrs and then marking the agar with a 23 ga syringe needle dipped in India ink at a corresponding register marked on the plastic petri plate, removing the agar from the plate and destaining overnight in water before observing them and is highly sensitive.
A gelatin based media (Medina and Baresi 2007, Rapid identification of gelatin and casein hydrolysis using TCA, J Microbiol Meth 69: 391-393) which uses 40 grams per liter of tryptic soy agar powder without glucose (Becton Dickinson, Sparks, Md.) modified to contain 8 g of gelatin (instead of 16 g) per liter may be preferable for certain organisms depending upon their growth requirements and is used as is appropriate. Approximately 5 ml of 20% trichloroacetic acid (TCA; Thermo Fisher, Waltham, Mass.) was used for protein precipitation per petri plate. This media can also be combined with preincorporated BCG, or post-incubation BCG dye reagent or Ponseau S, each as described above for the casein plates. […]

[1] = BCG-containing plates further stained with PS, 0.625 mg/ml trypsin for casein, 0.0625 mg/ml for gelatin (FIG. 2B)
[2] = casein plates with preincorporated BCG, before PS staining (FIG. 2A)

| Molecule | visualization of zone of protease protection [1] | relative size of zone of inhibition (diffusion zone) | visualization of zone of protease protection [2] | diffusion distance of inhibitor on plate (casein BCG plate, PS stained (FIGS. 5A and 5B)) |
| --- | --- | --- | --- | --- |
| CC(=O)N[C@@H](CC(C)C)C(=O)N[C@@H](CC(C)C)C(=O)N[C@H](C=O)CCCNC(=N)N [Leupeptin, leupeptin] | able to visualize | notably larger |  |  |
| CC(C)C[C@H](NC(=O)[C@@H](O)[C@H](N)Cc1ccccc1)C(=O)O [bestatin] | no staining |  |  |  |
| aprotinin [Aprotonin] | able to visualize |  | faintly visualize |  |
| B1 | able to visualize | smallest diffusion zone | faintly visualize | diffused only a short distance |
